According to publication PMC7168333, “5-(Carbamoylmethylene)-oxazolidin-2-ones as a Promising Class of Heterocycles Inducing Apoptosis Triggered by Increased ROS Levels and Mitochondrial Dysfunction in Breast and Cervical Cancer” (Biomedicines, 2020):

Experiments:
Format in all cases: cell-based, human
[1] = system: cytochrome c in MCF-7 cells; experiment: Western blot of cytochrome c in cytosolic and mitochondrial fractions, MCF-7; conditions: MCF-7, 15 µM, 24 h, vs control
Description: (§1) Both MCF-7 and HeLa cells were cultured in 100 mm dishes (1 × 10^7 cells/dish), added with the vehicle alone (DMSO) or treated for 24 h with 15 and 30 µM OI, respectively. Then, mitochondria extraction was performed as previously described. In brief, cells were harvested, resuspended in isolation buffer for cells (IBC, containing 200 mM sucrose, 10 mM Tris/MOPS, 1 mM EDTA/Tris, pH 7.4), and homogenized by a glass potter homogenizer. Nuclei and unbroken cells were removed by centrifugation (600× g for 10 min). Supernatants were centrifuged for 30 min at 10,000× g, obtaining upper cytosolic fractions and mitochondrial pellets; the latter were resuspended in RIPA buffer (PBS pH 7.4, 1% NP-40, 0.5% sodium deoxycholate, and 0.1% sodium dodecyl sulfate) containing a protease and phosphatase inhibitor cocktail (Sigma-Aldrich, Milan, Italy). Protein concentration was determined using Bio-Rad Protein Assay (Bio-Rad Laboratories, Hercules, CA, USA) and Western blotting was performed as next described.
(§2) Western blot analysis was conducted basically as previously reported. In detail, MCF-7 and HeLa cells were grown to 70–80% confluence, added to DMSO, or treated with 15 and 30 µM OI, respectively, for 24 h. In order to obtain total cell lysates, harvested cells were lysed using 200 μL of lysis buffer as previously reported. Cytosolic and mitochondrial fractions were isolated as already described. […]

MCF-7 cells [2] = experiment: TUNEL assay, MCF-7; conditions: MCF-7, 15 µM, 72 h; control 2.3%
Description: Apoptosis was tested by enzymatic labeling of DNA strand breaks using terminal deoxynucleotidyl transferase-mediated deoxyuridine triphosphate nick end-labeling (TUNEL) assay, following the guidelines of the manufacturer (TUNEL assay kit, Promega, Madison, WI, USA). Briefly, MCF-7 and HeLa cells were added with DMSO or treated with 15 and 30 µM OI, respectively, for 72 h. MCF-10A were added to DMSO or treated using 30 µM OI, for 72 h. Next, nuclear staining was achieved using 0.2 mg/mL 4′,6- diamidino-2-phenylindole (DAPI, Sigma-Aldrich, Milan, Italy) and samples were examined using a fluorescent microscope (Olympus BX4 equipped with CSV1.14 software employing a CAMXC-30 for image acquisition). Images were representative of three independent experiments.

HeLa cells = experiment: ROS production (CM-H2DCFDA, FACS), HeLa; conditions: 24 h
Description: (§3) Intracellular level of reactive oxygen species (ROS) was assessed by using CM-H2DCFDA (Invitrogen, Milan, Italy), a cell-permeable fluorogenic probe, which is deacetylated by intracellular esterases and can be oxidized in the presence of intracellular ROS, becoming highly fluorescent. MCF-7 and HeLa cells were seeded into 96-well tissue culture plates at a density of 5 × 10^4 cells/well and treated with 15 and 30 µM OI, respectively, for 24 h. Control cells were added with DMSO and processed at the same time. Then, cells were washed with PBS and stained in the dark with CM-H2DCFDA (diluted in PBS/CM to a final concentration of 1 μM) for 20 min at 37 °C. Next steps were also performed in the dark, in order to avoid probe oxidation. Cells were washed three times with PBS, harvested, re-suspended in PBS/CM, and fluorescence was measured by using Fortessa (BD Bioscience, San Jose, CA, USA). ROS levels were estimated by using mean fluorescent intensity of the viable cell population. Results were analyzed by the use of FlowJo software (Tree Star Inc., Ashland, OR, USA).

MCF-7 cells [3] = experiment: ROS production (CM-H2DCFDA, FACS), MCF-7; conditions: 24 h
Description: as §3

[4] = system: cytochrome c in HeLa cells; experiment: Western blot of cytochrome c in cytosolic and mitochondrial fractions, HeLa; conditions: 30 µM, 24 h, vs control
Description: as §1, §2

MCF-7 cells [5] = experiment: Cell cycle analysis (PI staining, flow cytometry), MCF-7; conditions: MCF-7, 15 µM, 24 h
Description: (§4) In order to assess cell cycle analysis, MCF-7 and HeLa cells were seeded in 6-well plates, at a density of 2.5 × 10^5 cells/well, then they were added to DMSO or treated using 15 and 30 µM OI, respectively, for 24 h. MCF-10A were seeded as described before, then they were added to DMSO or treated using 30 µM OI, the highest concentration used for cancer cells, for 24 h. Next, cells were harvested by trypsinization, rinsed twice with cold PBS, and pelleted by centrifugation at 1500 rpm for 5 min. Pellets were re-suspended in 70% ice-cold ethanol for 30 min at 4 °C to perform cell fixation. Then, samples were rinsed twice with PBS and stained using a solution containing 3.8 mM sodium citrate (Sigma-Aldrich, Milan, Italy), 100 μg/mL RNAse (Sigma-Aldrich, Milan, Italy), 50 μg/mL propidium iodide (PI, Sigma-Aldrich, Milan, Italy), and 0.1% Igepal (Sigma-Aldrich, Milan, Italy) in PBS for 1 h at 37 °C. Subsequent cytofluorimetric analysis was achieved by BD FACSJazz™ Cell Sorter (Becton Dickinson, Franklin Lakes, NJ, USA).

MCF-10A cells = experiment: Cell cycle analysis (PI staining, flow cytometry), MCF-10A; conditions: 30 µM, 24 h
Description: as §4

CCN(CC)C(=O)/C=C1/OC(=O)N(Cc2ccccc2)C1(C)C [OI, (E)-2-(3-benzyl-4,4-dimethyl-2-oxooxazolidin-5-ylidene)-N,N-diethylacetamide]
cytochrome c levels in the cytosolic fraction [1]: significant increases | cytochrome c mitochondrial levels [1]: concomitant decreases | apoptotic rate (TUNEL-positive cells) (MCF-7 cells [2]): 34.3% | ROS increase in the presence of NAC (HeLa cells; 30 µM OI + NAC): no longer evident | ROS generation (HeLa cells; 30 µM, vs control): significantly stimulated | ROS increase in the presence of NAC (MCF-7 cells [3]; MCF-7, 15 µM OI + NAC): no longer evident | ROS generation (MCF-7 cells [3]; MCF-7, 15 µM, vs control): significantly stimulated | cytochrome c levels in the cytosolic fraction [4]: significant increases | cytochrome c mitochondrial levels [4]: concomitant decreases | increase of the percentage of cells in the G0/G1 phase (MCF-7 cells [5]): 15% | reduction of the fraction of cells in the S-phase (MCF-7 cells [5]): 30% | effect on the cell cycle (MCF-10A cells): did not evidence any noticeable effect
